In one test the target is CDK-2/cyclin A (Homo sapiens, UniProt P24941). Nature of the test: CDK inhibition assay, CDK-2/cyclin A against Histone HI, 33P-ATP. The conditions noted are these: at 500 nM. Type of test: biochemical. The method, then:
Compounds were evaluated for their ability to inhibit CDK2 and CDK9 as given below.
CDK-2/cyclin A (5-20 mU diluted in 50 mM Hepes pH 7.5, 1 mM DTT, 0.02% Brij35, 100 mM NaCl) was assayed against Histone HI in a final volume of 25.5 µl containing 50 mM Hepes pH7.5, 1 mM DTT, 0.02% Brij35, 100 mM NaCl, Histone HI (1 mg/ml), 10 mM magnesium acetate and 0.02 mM [33P-g-ATP](500-1000 cpm/pmole) and incubated for 30 min at room temperature. Assays were stopped by addition of 5 µl of 0.5 M (3%) orthophosphoric acid and then harvested onto P81 Unifilter plates with a wash buffer of 50 mM orthophosphoric acid.

In the next test the target is CDK-9/Cyclin T1 (Homo sapiens, UniProt P50750). Description: CDK inhibition assay, CDK-9/Cyclin T1 against substrate peptide, 33P-ATP. Type of test: biochemical. Conditions: at 500 nM. The protocol:
(50-1000 cpm/pmole) and incubated for 30 min at room temperature. Assays were stopped by addition of 5 µl of 0.5 M (3%) orthophosphoric acid and then harvested onto P81 Unifilter plates with a wash buffer of 50 mM orthophosphoric acid.

Where [1] appears, read: Table-6, read-out: In vitro CDK2 % of inhibition.
Where [2] appears, read: read-out: inhibition against CDK2.
Setting [3] is: Table-6, read-out: In vitro CDK9 % of inhibition.
The mark [4] stands for this setting: read-out: inhibition against CDK9.
Where [5] appears, read: Table-7, read-out: In vitro CDK2 % of inhibition.
[6] abbreviates: Table-7, read-out: In vitro CDK9 % of inhibition.

Like-named read-outs stand apart in the source and are kept apart here. Where only a bound is given, the exact number is not on record here.

Sequence of CDK-9/Cyclin T1 (P50750 whole entry): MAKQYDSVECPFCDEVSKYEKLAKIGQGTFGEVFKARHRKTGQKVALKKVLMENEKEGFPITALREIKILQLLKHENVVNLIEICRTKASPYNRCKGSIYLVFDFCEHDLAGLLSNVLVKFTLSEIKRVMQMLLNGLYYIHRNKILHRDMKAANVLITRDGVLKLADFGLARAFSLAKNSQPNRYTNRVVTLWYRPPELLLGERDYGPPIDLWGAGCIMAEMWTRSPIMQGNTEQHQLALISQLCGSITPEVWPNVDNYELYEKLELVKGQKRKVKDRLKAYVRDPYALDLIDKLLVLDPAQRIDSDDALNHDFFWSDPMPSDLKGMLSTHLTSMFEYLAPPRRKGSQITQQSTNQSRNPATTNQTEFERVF
Sequence of CDK-9/Cyclin T1 (O60563 whole entry partner): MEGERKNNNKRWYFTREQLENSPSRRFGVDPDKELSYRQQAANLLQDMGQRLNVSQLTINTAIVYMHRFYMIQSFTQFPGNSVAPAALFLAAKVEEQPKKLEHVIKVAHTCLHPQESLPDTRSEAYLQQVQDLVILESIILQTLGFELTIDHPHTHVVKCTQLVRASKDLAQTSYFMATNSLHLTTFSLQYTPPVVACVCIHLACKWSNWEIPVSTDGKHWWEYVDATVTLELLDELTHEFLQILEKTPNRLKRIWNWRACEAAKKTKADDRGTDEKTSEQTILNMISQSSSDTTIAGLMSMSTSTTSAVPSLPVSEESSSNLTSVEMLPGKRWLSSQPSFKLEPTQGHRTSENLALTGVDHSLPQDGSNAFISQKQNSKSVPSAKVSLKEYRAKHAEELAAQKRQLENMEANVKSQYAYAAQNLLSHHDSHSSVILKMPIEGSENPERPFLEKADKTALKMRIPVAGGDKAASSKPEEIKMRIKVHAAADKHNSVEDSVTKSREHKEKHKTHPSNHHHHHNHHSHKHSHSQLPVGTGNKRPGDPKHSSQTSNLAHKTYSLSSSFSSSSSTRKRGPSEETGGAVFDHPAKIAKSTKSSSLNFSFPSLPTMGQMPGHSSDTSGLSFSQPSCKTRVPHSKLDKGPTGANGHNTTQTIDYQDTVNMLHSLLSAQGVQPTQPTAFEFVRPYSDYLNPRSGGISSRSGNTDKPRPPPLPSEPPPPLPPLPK

On to `FC(F)(F)c1cccc(-c2cnc3[nH]cc(-c4ccnc(NC5CC5)n4)c3c2)c1` [1A4, N-cyclopropyl-4-(5-(3-(trifluoromethyl)phenyl)-1H-pyrrolo[2,3-b]pyridin-3-yl)pyrimidin-2-amine], for which the inhibition at 0.5 µM on CDK-2/cyclin A (setting [1]), on CDK-2/cyclin A (setting [2]), on CDK-9/Cyclin T1 (setting [3]) and at CDK-9/Cyclin T1 (setting [4]) was above 70% throughout.
On to `Cc1cccc(-c2cnc3[nH]cc(-c4ccnc(NC5CCCC5)n4)c3c2)c1` [1A27, N-cyclopentyl-4-(5-(m-tolyl)-1H-pyrrolo[2,3-b]pyridin-3-yl)pyrimidin-2-amine], for which the inhibition at 0.5 µM at CDK-2/cyclin A (setting [1]), on CDK-2/cyclin A (setting [2]), on CDK-9/Cyclin T1 (setting [3]) and at CDK-9/Cyclin T1 (setting [4]) was above 50% throughout.
`c1ccc2c(-c3cnc4[nH]cc(-c5ccnc(NC6CCCC6)n5)c4c3)nccc2c1` [1A40, N-cyclopentyl-4-(5-(isoquinolin-1-yl)-1H-pyrrolo[2,3-b]pyridin-3-yl)pyrimidin-2-amine]: the inhibition at 0.5 µM at CDK-2/cyclin A (setting [1]), at CDK-2/cyclin A (setting [2]), at CDK-9/Cyclin T1 (setting [3]) and on CDK-9/Cyclin T1 (setting [4]) was above 50% in each case.
Take `Cc1ccc(-c2cnc3[nH]cc(-c4ccnc(NC5CCCC5)n4)c3c2)cc1` [1A26, N-cyclopentyl-4-(5-(p-tolyl)-1H-pyrrolo[2,3-b]pyridin-3-yl)pyrimidin-2-amine]: the inhibition at 0.5 µM on CDK-2/cyclin A (setting [1]), on CDK-2/cyclin A (setting [2]), on CDK-9/Cyclin T1 (setting [3]) and at CDK-9/Cyclin T1 (setting [4]) was above 50% each time.
With `c1ccc2[nH]c(-c3cnc4[nH]cc(-c5ccnc(NC6CCCCCC6)n5)c4c3)cc2c1` [1A59, 4-(5-(1H-indol-2-yl)-1H-pyrrolo[2,3-b]pyridin-3-yl)-N-cycloheptylpyrimidin-2-amine], the inhibition at 0.5 µM on CDK-2/cyclin A (setting [5]), at CDK-2/cyclin A (setting [2]), on CDK-9/Cyclin T1 (setting [6]) and on CDK-9/Cyclin T1 (setting [4]) was above 70% each time.
For `CSc1ccccc1-c1cnc2[nH]cc(-c3ccnc(NCCc4ccccc4)n3)c2c1` [1B9, 4-(5-(2-(methylthio)phenyl)-1H-pyrrolo[2,3-b]pyridin-3-yl)-N-phenethylpyrimidin-2-amine], the inhibition at 0.5 µM at CDK-2/cyclin A (setting [5]), on CDK-2/cyclin A (setting [2]), on CDK-9/Cyclin T1 (setting [6]) and on CDK-9/Cyclin T1 (setting [4]) was above 50% each time.
For `Clc1ccc(-c2cnc3[nH]cc(-c4ccnc(NC5CCCC5)n4)c3c2)cc1` [1A32, 4-(5-(4-chlorophenyl)-1H-pyrrolo [2,3-b]pyridin-3-yl)-N-cyclopentylpyrimidin-2-amine], the inhibition at 0.5 µM at CDK-2/cyclin A (setting [1]), on CDK-2/cyclin A (setting [2]), on CDK-9/Cyclin T1 (setting [3]) and on CDK-9/Cyclin T1 (setting [4]) was above 50% in each case.
As for `FC(F)(F)Oc1ccc(-c2cnc3[nH]cc(-c4ccnc(NCCc5ccccc5)n4)c3c2)cc1` [1B3, N-phenethyl-4-(5-(4-(trifluoromethoxy)phenyl)-1H-pyrrolo[2,3-b]pyridin-3-yl)pyrimidin-2-amine], the inhibition at 0.5 µM at CDK-2/cyclin A (setting [5]), at CDK-2/cyclin A (setting [2]), on CDK-9/Cyclin T1 (setting [6]) and at CDK-9/Cyclin T1 (setting [4]) was above 50% throughout.
Regarding `CCc1ccccc1-c1cnc2[nH]cc(-c3ccnc(NC4CCCCCC4)n3)c2c1` [1A50, N-cycloheptyl-4-(5-(2-ethylphenyl)-1H-pyrrolo[2,3-b]pyridin-3-yl)pyrimidin-2-amine], the inhibition at 0.5 µM at CDK-2/cyclin A (setting [5]), on CDK-2/cyclin A (setting [2]), at CDK-9/Cyclin T1 (setting [6]) and at CDK-9/Cyclin T1 (setting [4]) was above 70% throughout.
Regarding `CCc1ccccc1-c1cnc2[nH]cc(-c3ccnc(NC4CC4)n3)c2c1` [1A10, N-cyclopropyl-4-(5-(2-ethylphenyl)-1H-pyrrolo[2,3-b]pyridin-3-yl)pyrimidin-2-amine], the inhibition at 0.5 µM at CDK-2/cyclin A (setting [1]), at CDK-2/cyclin A (setting [2]), at CDK-9/Cyclin T1 (setting [3]) and at CDK-9/Cyclin T1 (setting [4]) was above 70% each time.
For `CC(=O)c1ccc(-c2cnc3[nH]cc(-c4ccnc(NCCc5ccccc5)n4)c3c2)cc1` [1B13, 1-(4-(3-(2-(phenethylamino)pyrimidin-4-yl)-1H-pyrrolo[2,3-b]pyridin-5-yl)phenyl)ethan-1-one], the inhibition at 0.5 µM at CDK-2/cyclin A (setting [5]), on CDK-2/cyclin A (setting [2]), on CDK-9/Cyclin T1 (setting [6]) and on CDK-9/Cyclin T1 (setting [4]) was above 50% throughout.
For the compound `c1ccc2sc(-c3cnc4[nH]cc(-c5ccnc(NC6CCCCCC6)n5)c4c3)cc2c1` [1A58, 4-(5-(benzo[b]thiophen-2-yl)-1H-pyrrolo[2,3-b]pyridin-3-yl)-N-cycloheptylpyrimidin-2-amine], the inhibition at 0.5 µM at CDK-2/cyclin A (setting [5]), at CDK-2/cyclin A (setting [2]), on CDK-9/Cyclin T1 (setting [6]) and at CDK-9/Cyclin T1 (setting [4]) was above 70% each time.
As to `Cc1ccc(-c2cnc3[nH]cc(-c4ccnc(NCCc5ccccc5)n4)c3c2)cc1` [1B6, N-phenethyl-4-(5-(p-tolyl)-1H-pyrrolo[2,3-b]pyridin-3-yl)pyrimidin-2-amine], the inhibition at 0.5 µM on CDK-2/cyclin A (setting [5]), on CDK-2/cyclin A (setting [2]), on CDK-9/Cyclin T1 (setting [6]) and on CDK-9/Cyclin T1 (setting [4]) was above 70% each time.
Consider `Cc1ccc(-c2cnc3[nH]cc(-c4ccnc(NC5CC5)n4)c3c2)cc1` [1A6, N-cyclopropyl-4-(5-(p-tolyl)-1H-pyrrolo[2,3-b]pyridin-3-yl)pyrimidin-2-amine], for which the inhibition at 0.5 µM at CDK-2/cyclin A (setting [1]), on CDK-2/cyclin A (setting [2]), at CDK-9/Cyclin T1 (setting [3]) and on CDK-9/Cyclin T1 (setting [4]) was above 70% each time.
With `c1ccc(CCNc2nccc(-c3c[nH]c4ncc(-c5cc6ccccc6s5)cc34)n2)cc1` [1B18, 4-(5-(benzo[b]thiophen-2-yl)-1H-pyrrolo[2,3-b]pyridin-3-yl)-N-phenethylpyrimidin-2-amine], the inhibition at 0.5 µM on CDK-2/cyclin A (setting [5]), on CDK-2/cyclin A (setting [2]), on CDK-9/Cyclin T1 (setting [6]) and at CDK-9/Cyclin T1 (setting [4]) was above 50% throughout.
On to `FC(F)(F)c1ccc(-c2cnc3[nH]cc(-c4ccnc(NC5CC5)n4)c3c2)cc1` [1A1, N-cyclopropyl-4-(5-(4-(trifluoromethyl)phenyl)-1H-pyrrolo[2,3-b]pyridin-3-yl)pyrimidin-2-amine], for which the inhibition at 0.5 µM on CDK-2/cyclin A (setting [1]) and at CDK-9/Cyclin T1 (setting [3]) was below 50% throughout.
With `c1ccc(CCNc2nccc(-c3c[nH]c4ncc(-c5cc6ccccc6[nH]5)cc34)n2)cc1` [1B19, 4-(5-(1H-indol-2-yl)-1H-pyrrolo[2,3-b]pyridin-3-yl)-N-phenethylpyrimidin-2-amine], the inhibition at 0.5 µM at CDK-2/cyclin A (setting [5]), on CDK-2/cyclin A (setting [2]), on CDK-9/Cyclin T1 (setting [6]) and at CDK-9/Cyclin T1 (setting [4]) was above 50% in each case.
As to `CSc1ccc(-c2cnc3[nH]cc(-c4ccnc(NCCc5ccccc5)n4)c3c2)cc1` [1B8, 4-(5-(4-(methylthio)phenyl)-1H-pyrrolo[2,3-b]pyridin-3-yl)-N-phenethylpyrimidin-2-amine], the inhibition at 0.5 µM at CDK-2/cyclin A (setting [5]), at CDK-2/cyclin A (setting [2]), on CDK-9/Cyclin T1 (setting [6]) and on CDK-9/Cyclin T1 (setting [4]) was above 50% each time.

The record behind these values is EP3383875B1, “3-PYRIMIDINYL PYRROLO [2,3-B] PYRIDINE AS ANTICANCER AGENTS AND THE PROCESS FOR THE PREPARATION THEREOF” (Council Of Scientific & Industrial Research, priority 2015, dated 2017).
